Data reported in ChEMBL document CHEMBL1909590, “Design, synthesis and docking studies of new quinoline-3-carbohydrazide derivatives as antitubercular agents” (2011).
Values after ≈ are worked out from the molar mass of the structure shown.

What was measured:
Assay type in all cases: functional
Staphylococcus aureus = assay: Antibacterial activity against Staphylococcus aureus ATCC 25923 after 18 to 25 hrs by serial plate dilution method
Streptococcus pyogenes = assay: Antibacterial activity against Streptococcus pyogenes clinical isolate after 18 to 25 hrs by serial plate dilution method
Pseudomonas aeruginosa = assay: Antibacterial activity against Pseudomonas aeruginosa ATCC 27853 after 18 to 25 hrs by serial plate dilution method
Klebsiella pneumoniae = assay: Antibacterial activity against Klebsiella pneumoniae clinical isolates after 18 to 25 hrs by serial plate dilution method
Escherichia coli = assay: Antibacterial activity against Escherichia coli ATCC 25922 after 18 to 25 hrs by serial plate dilution method
[1] = tested on: Mycobacterium tuberculosis; assay: Antimycobacterial activity against Mycobacterium tuberculosis H37Rv ATCC 27294 using compound level ranging from 1 to 100 ug/mL after 7 days by resazurin reduction test; conditions: H37Rv ATCC 27294, 168 h
[2] = tested on: Mycolicibacterium smegmatis; assay: Antimycobacterial activity against Mycobacterium smegmatis MC2 ATCC 19420 using compound level ranging from 1 to 100 ug/mL after 7 days by resazurin reduction test; conditions: MC2 ATCC 19420, 168 h
[3] = tested on: Mycolicibacterium fortuitum; assay: Antimycobacterial activity against Mycobacterium fortuitum ATCC 19542 using compound level ranging from 1 to 100 ug/mL after 7 days by resazurin reduction test; conditions: ATCC 19542, 168 h
[4] = tested on: Mycobacterium tuberculosis; assay: Growth inhibition of Mycobacterium tuberculosis H37Rv ATCC 27294 using compound level ranging from 1 to 100 ug/mL after 7 days by resazurin reduction test
[5] = tested on: Mycobacterium tuberculosis; assay: Antimycobacterial activity against Mycobacterium tuberculosis H37Rv ATCC 27294 using compound level ranging from 0.3125 to 5 ug/mL after 7 days by resazurin reduction test; conditions: H37Rv ATCC 27294, 168 h
[6] = tested on: Mycolicibacterium smegmatis; assay: Antimycobacterial activity against Mycobacterium smegmatis MC2 ATCC 19420 using compound level ranging from 0.3125 to 5 ug/mL after 7 days by resazurin reduction test; conditions: MC2 ATCC 19420, 168 h
[7] = tested on: Mycolicibacterium fortuitum; assay: Antimycobacterial activity against Mycobacterium fortuitum ATCC 19542 using compound level ranging from 0.3125 to 5 ug/mL after 7 days by resazurin reduction test; conditions: ATCC 19542, 168 h

Row | SMILES | MIC (Staphylococcus aureus) | MIC (Streptococcus pyogenes) | MIC (Pseudomonas aeruginosa) | MIC (Klebsiella pneumoniae) | MIC (Escherichia coli) | MIC [1] | MIC [2] | MIC [3] | growth inhibition (GI) [4] | MIC [5] | MIC [6] | MIC [7]
1 | O=C(NNC(=O)c1cnc2c(C(F)(F)F)cccc2c1O)Nc1cccc(Cl)c1 | 0.8 µg/mL (≈ 1.88 µM) | 0.4 µg/mL (≈ 0.942 µM) | 1.6 µg/mL (≈ 3.77 µM) | 0.8 µg/mL (≈ 1.88 µM) | 3.12 µg/mL (≈ 7.35 µM) | 10 µg/mL (≈ 23.5 µM) | > 100 µg/mL | > 100 µg/mL | <90% | 10 µg/mL (≈ 23.5 µM) |  | 
2 | O=C(NNC(=S)Nc1cccnc1)c1cnc2c(C(F)(F)F)cccc2c1O | 6.25 µg/mL (≈ 15.3 µM) | 12.5 µg/mL (≈ 30.7 µM) | 12.5 µg/mL (≈ 30.7 µM) | 6.25 µg/mL (≈ 15.3 µM) | 3.12 µg/mL (≈ 7.66 µM) | > 100 µg/mL | > 100 µg/mL | > 100 µg/mL | 0% |  |  | 
3 | O=C(O)c1cn(C2CC2)c2cc(N3CCNCC3)c(F)cc2c1=O [CIPROFLOXACIN] | 1 µg/mL (≈ 3.02 µM) |  | 0.4 µg/mL (≈ 1.21 µM) |  |  |  |  |  |  |  |  | 
4 | O=C(N/N=C/c1ccncc1)c1cnc2c(C(F)(F)F)cccc2c1O | 6.25 µg/mL (≈ 17.3 µM) | 12.5 µg/mL (≈ 34.7 µM) | 12.5 µg/mL (≈ 34.7 µM) | 6.25 µg/mL (≈ 17.3 µM) | 12.5 µg/mL (≈ 34.7 µM) | > 100 µg/mL | > 100 µg/mL | > 100 µg/mL | 0% |  |  | 
5 | O=C(NNC(=S)Nc1ccccc1F)c1cnc2c(C(F)(F)F)cccc2c1O | 0.8 µg/mL (≈ 1.89 µM) | 0.4 µg/mL (≈ 0.943 µM) | 0.4 µg/mL (≈ 0.943 µM) | 0.1 µg/mL (≈ 0.236 µM) | 0.1 µg/mL (≈ 0.236 µM) | 1 µg/mL (≈ 2.36 µM) | 10 µg/mL (≈ 23.6 µM) | 10 µg/mL (≈ 23.6 µM) | 95% | 0.625 µg/mL (≈ 1.47 µM) | 10 µg/mL (≈ 23.6 µM) | 10 µg/mL (≈ 23.6 µM)
6 | COc1ccc(NC(=O)NNC(=O)c2cnc3c(C(F)(F)F)cccc3c2O)cc1 | 0.8 µg/mL (≈ 1.9 µM) | 0.4 µg/mL (≈ 0.952 µM) | 0.4 µg/mL (≈ 0.952 µM) | 0.1 µg/mL (≈ 0.238 µM) | 0.1 µg/mL (≈ 0.238 µM) | 1 µg/mL (≈ 2.38 µM) | 10 µg/mL (≈ 23.8 µM) | 10 µg/mL (≈ 23.8 µM) | 90% | 1.25 µg/mL (≈ 2.97 µM) | 10 µg/mL (≈ 23.8 µM) | 12.5 µg/mL (≈ 29.7 µM)
7 | CO[C@H]1/C=C/O[C@@]2(C)Oc3c(C)c(O)c4c(O)c(c(/C=N/N5CCN(C)CC5)c(O)c4c3C2=O)NC(=O)/C(C)=C\C=C\[C@H](C)[C@H](O)[C@@H](C)[C@@H](O)[C@@H](C)[C@H](OC(C)=O)[C@@H]1C [RIFAMPIN] |  |  |  |  |  | 0.5 µg/mL (≈ 0.608 µM) | 1.5 µg/mL (≈ 1.82 µM) | 1.5 µg/mL (≈ 1.82 µM) | 95% | 0.5 µg/mL (≈ 0.608 µM) | 1.5 µg/mL (≈ 1.82 µM) | 1.5 µg/mL (≈ 1.82 µM)
8 | COc1ccc(/C=N/NC(=O)c2cnc3c(C(F)(F)F)cccc3c2O)c(F)c1 | 0.8 µg/mL (≈ 1.96 µM) | 0.4 µg/mL (≈ 0.982 µM) | 0.4 µg/mL (≈ 0.982 µM) | 0.1 µg/mL (≈ 0.246 µM) | 0.1 µg/mL (≈ 0.246 µM) | 1 µg/mL (≈ 2.46 µM) | 10 µg/mL (≈ 24.6 µM) | 10 µg/mL (≈ 24.6 µM) | 95% | 0.625 µg/mL (≈ 1.53 µM) | 10 µg/mL (≈ 24.6 µM) | 10 µg/mL (≈ 24.6 µM)
9 | COc1ccc(NC(=S)NNC(=O)c2cnc3c(C(F)(F)F)cccc3c2O)cc1 | 1.6 µg/mL (≈ 3.67 µM) | 0.8 µg/mL (≈ 1.83 µM) | 1.6 µg/mL (≈ 3.67 µM) | 3.12 µg/mL (≈ 7.15 µM) | 6.25 µg/mL (≈ 14.3 µM) | 10 µg/mL (≈ 22.9 µM) | > 100 µg/mL | > 100 µg/mL | <90% | 5 µg/mL (≈ 11.5 µM) |  | 
10 | COc1ccc(/C=N/NC(=O)c2cnc3c(C(F)(F)F)cccc3c2O)cc1O | 1.6 µg/mL (≈ 3.95 µM) | 1.6 µg/mL (≈ 3.95 µM) | 6.25 µg/mL (≈ 15.4 µM) | 12.5 µg/mL (≈ 30.8 µM) | 12.5 µg/mL (≈ 30.8 µM) | 10 µg/mL (≈ 24.7 µM) | > 100 µg/mL | > 100 µg/mL | <90% | 10 µg/mL (≈ 24.7 µM) |  | 
11 | O=C(N/N=C/c1ccc2c(c1)CCO2)c1cnc2c(C(F)(F)F)cccc2c1O | 1.6 µg/mL (≈ 3.99 µM) | 3.12 µg/mL (≈ 7.77 µM) | 3.12 µg/mL (≈ 7.77 µM) | 6.25 µg/mL (≈ 15.6 µM) | 12.5 µg/mL (≈ 31.1 µM) | > 100 µg/mL | > 100 µg/mL | > 100 µg/mL | 0% |  |  | 
